The target in the assay is T1, RORgT (Homo sapiens, UniProt P51449).
T1 construct: Gal4 (fusion partner); expressed in transfected cells; host or cells: engineered Jurkat cells (Jurkat pEx/Gal/hRORγ CLBD/HYG pG5luc/blast)
T1 sequence (P51449 267-516): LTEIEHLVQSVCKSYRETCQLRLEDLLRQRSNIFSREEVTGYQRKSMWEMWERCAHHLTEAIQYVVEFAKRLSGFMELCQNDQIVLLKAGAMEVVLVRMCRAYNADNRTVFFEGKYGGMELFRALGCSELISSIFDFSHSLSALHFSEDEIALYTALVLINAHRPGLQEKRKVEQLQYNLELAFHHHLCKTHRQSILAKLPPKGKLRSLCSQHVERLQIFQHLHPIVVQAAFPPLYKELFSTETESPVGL
The assay is described as follows: RORgT Gal4 Luciferase Reporter Gene Assay. It is filed as cell-based. Conditions: engineered Jurkat cells overexpressing RORgT (LBD or full length) with Gal4 Luc reporter; 18 hours at 37° C.; 40 μM to 0.67 nM; read-out: RORg_GAL4 EC50. The procedure, abridged: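 Cells exposed to compound 18 hours at 37° C, then lysed for luciferase luminescence. Inhibition of constitutive activity expressed as percent reduction of signal window relative to a control compound.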

In general, EC50 refers to the concentration that produces a half-maximal response. As to `CC1(c2cc(F)cc(Oc3c(Cl)ccc(C(=O)NCc4ccc(S(N)(=O)=O)cc4)c3Cl)c2)CC1` [Example 278], the EC50 turned out to be 1.7 nM.

Turning to `COc1ccc(Oc2c(Cl)cc(NC(=O)CN(C)C)cc2Cl)cc1C(C)C` [Example 280], the half-maximal effective concentration (EC50) came out at 656 nM.

Regarding `COc1ccc(Oc2c(Cl)cc(NC(=O)CCC(N)=O)cc2Cl)cc1C(C)C` [Example 281], the EC50 stood at 375 nM.

`COc1ccc(Oc2c(Cl)cc(NC(=O)CCCS(N)(=O)=O)cc2Cl)cc1C(C)C` [Example 282]: the EC50 was determined as 264 nM.

For `COc1ccc(Oc2c(Cl)cc(NC(=O)CCc3ccccc3)cc2Cl)cc1C(C)C` [Example 284], the EC50 worked out at 40000 nM.

Take `COc1ccc(Oc2c(Cl)cc(NC(=O)CCCc3ccccc3)cc2Cl)cc1C(C)C` [Example 285]: the EC50 is 284 nM.

In the case of `COc1ccc(Oc2c(Cl)cc(NC(=O)Cc3cnccn3)cc2Cl)cc1C(C)C` [Example 286], the EC50 is 316 nM.

On to `COc1ccc(Oc2c(Cl)cc(NC(=O)C3CCCCC3)cc2Cl)cc1C(C)C` [Example 287], for which the 50% effective concentration (EC50) was 132 nM.

For the molecule `COC(=O)c1cccc(C(=O)Nc2cc(Cl)c(Oc3ccc(OC)c(C(C)C)c3)c(Cl)c2)c1` [Example 288], the EC50 was 1270 nM.

Consider `COc1ccc(Oc2c(Cl)cc(NC(=O)c3cccc(S(C)(=O)=O)c3)cc2Cl)cc1C(C)C` [Example 289], for which the EC50 was 1480 nM.

As to `COc1ccc(Oc2c(Cl)cc(NC(=O)CCC(C)C)cc2Cl)cc1C(C)C` [Example 290], the EC50 turned out to be 524 nM.

For `COc1ccc(Oc2c(Cl)cc(NC(=O)CCN3CCCC3=O)cc2Cl)cc1C(C)C` [Example 291], the EC50 stood at 134 nM.

Regarding `COc1ccc(Oc2c(Cl)cc(NC(=O)C3CC3)cc2Cl)cc1C(C)C` [Example 292], the EC50 came to 940 nM.

With `COc1ccc(Oc2c(Cl)cc(NC(=O)c3ccc(S(C)(=O)=O)cc3)cc2Cl)cc1C(C)C` [Example 293], the EC50 came out at 3270 nM.

`COc1ccc(Oc2c(Cl)cc(NC(=O)c3cnccn3)cc2Cl)cc1C(C)C` [Example 294]: the EC50 amounted to 4520 nM.

Regarding `COC(=O)CCC(=O)Nc1cc(Cl)c(Oc2ccc(OC)c(C(C)C)c2)c(Cl)c1` [Example 295], the EC50 amounted to 308 nM.

In the case of `COc1ccc(Oc2c(Cl)cc(NC(=O)CCN3CCOCC3)cc2Cl)cc1C(C)C` [Example 296], the EC50 turned out to be 1010 nM.

For the molecule `COc1ccc(Oc2c(Cl)cc(NC(=O)CCn3ccnc3)cc2Cl)cc1C(C)C` [Example 297], the EC50 was 44 nM.

Regarding `COc1ccc(Oc2c(Cl)cc(NC(=O)CCCN3CCOCC3)cc2Cl)cc1C(C)C` [Example 298], the EC50 turned out to be 727 nM.

Turning to `COc1ccc(Oc2c(Cl)cc(NC(=O)c3ccccc3)cc2Cl)cc1C(C)C` [Example 299], the EC50 came to 20000 nM.

In the case of `COCCC(=O)Nc1cc(Cl)c(Oc2ccc(OC)c(C(C)C)c2)c(Cl)c1` [Example 300], the EC50 is 591 nM.

For `COc1ccc(Oc2c(Cl)cc(NC(=O)CC#N)cc2Cl)cc1C(C)C` [Example 301], the EC50 turned out to be 343 nM.

Regarding `COc1ccc(Oc2c(Cl)cc(NC(=O)Cn3ccnc3)cc2Cl)cc1C(C)C` [Example 302], the EC50 is 185 nM.

As to `CCCS(=O)(=O)Nc1cc(Cl)c(Oc2ccc(OC)c(C(C)C)c2)c(Cl)c1` [Example 303], the EC50 came to 858 nM.

With `COc1ccc(Oc2c(Cl)cc(NS(=O)(=O)C3CC3)cc2Cl)cc1C(C)C` [Example 304], the EC50 came to 1080 nM.

On to `COc1ccc(Oc2c(Cl)cc(NS(=O)(=O)C(C)C)cc2Cl)cc1C(C)C` [Example 305], for which the EC50 came out at 421 nM.

Consider `CCNC(=O)Nc1cc(Cl)c(Oc2ccc(OC)c(C(C)C)c2)c(Cl)c1` [Example 306], for which the EC50 amounted to 1890 nM.

For `CCS(=O)(=O)c1ccc(CC(=O)Nc2cc(Cl)c(Oc3ccc(OC)c(C(C)C)c3)c(Cl)c2)cc1` [Example 307], the EC50 worked out at 16 nM.

As to `COc1ccc(Oc2c(Cl)cc3[nH]c(Cc4ccccc4)nc3c2Cl)cc1C(C)C` [Example 308], the concentration giving a half-maximal response (EC50) worked out at 1280 nM.

As to `COc1ccc(Oc2c(Cl)cc3[nH]c(Cc4cccnc4)nc3c2Cl)cc1C(C)C` [Example 309], the EC50 was 409 nM.

`CCc1cc(Oc2c(Cl)cc(NC(=O)Cc3cccnc3)cc2Cl)ccc1OC` [Example 310]: the concentration for a half-maximal effect (EC50) is 293 nM.

For the molecule `COc1ccc(Oc2c(Cl)cc(NC(=O)Cc3cccnc3)cc2Cl)cc1CC(C)C` [Example 311], the EC50 came to 153 nM.

As to `COc1ccc(Oc2c(F)cc(NC(=O)Cc3cccnc3)cc2F)cc1CC(C)C` [Example 312], the EC50 is 1440 nM.

Consider `CCS(=O)(=O)N1CCN(CC(=O)Nc2cc(Cl)c(Oc3ccc(OC)c(C(C)C)c3)c(Cl)c2)CC1` [Example 313], for which the EC50 was 32 nM.

In the case of `COc1ccc(Oc2c(Cl)cc(NC(=O)CC3CCCN(S(N)(=O)=O)C3)cc2Cl)cc1C(C)C` (stereo not drawn) [Example 314], the EC50 came to 844 nM.

In the case of `COc1ccc(Oc2c(Cl)cc(NC(=O)CN3CCN(S(=O)(=O)C4CC4)CC3)cc2Cl)cc1C(C)C` [Example 315], the EC50 turned out to be 88 nM.

As for `COc1ccc(Oc2c(Cl)cc(NC(=O)CC3CCCN(S(=O)(=O)C(C)C)C3)cc2Cl)cc1C(C)C` (stereo not drawn) [Example 316], the EC50 amounted to 943 nM.

Take `COc1ccc(Oc2c(Cl)cc(NC(=O)CC3CCCN(S(=O)(=O)C4CC4)C3)cc2Cl)cc1C(C)C` (stereo not drawn) [Example 317]: the EC50 is 95 nM.

Take `COc1ccc(Oc2c(Cl)cc(NC(=O)C[C@H]3CCCN(S(=O)(=O)C4CC4)C3)cc2Cl)cc1C(C)C` [Example 318]: the EC50 was 76 nM.

`CCS(=O)(=O)N1CCC(CC(=O)Nc2cc(Cl)c(Oc3ccc(OC)c(C(C)C)c3)c(Cl)c2)CC1` [Example 319]: the EC50 came out at 33 nM.

Turning to `COc1ccc(Oc2c(Cl)cc(NC(=O)CC3CCN(S(=O)(=O)C4CC4)CC3)cc2Cl)cc1C(C)C` [Example 320], the EC50 was determined as 177 nM.

For the molecule `COc1ccc(Oc2c(Cl)cc(NC(=O)C[C@H]3CCCN(S(=O)(=O)C(C)C)C3)cc2Cl)cc1C(C)C` [Example 321], the EC50 was 149 nM.

On to `CCS(=O)(=O)N1CCCC(CC(=O)Nc2cc(Cl)c(Oc3ccc(OC)c(C(C)C)c3)c(Cl)c2)C1` (stereo not drawn) [Example 322], for which the EC50 came to 126 nM.

Consider `CCS(=O)(=O)N1CCC[C@H](CC(=O)Nc2cc(Cl)c(Oc3ccc(OC)c(C(C)C)c3)c(Cl)c2)C1` [Example 323], for which the EC50 was determined as 92 nM.

With `CC(C)c1cc(Oc2c(Cl)cc(NC(=O)Cc3cccnc3)cc2Cl)ccc1C1CC1` [Example 324], the EC50 amounted to 214 nM.

`CC(C)(F)c1cc(F)cc(Oc2c(Cl)cc(NC(=O)Cc3ccc(S(C)(=O)=O)cc3)cc2Cl)c1` [Example 325]: the EC50 is 7.2 nM.

In the case of `NS(=O)(=O)c1ccc(CNC(=O)c2ccc(Cl)c(Oc3cc(F)cc(CCC(F)(F)F)c3)c2Cl)cc1` [Example 326], the EC50 came to 10 nM.

Regarding `CS(=O)(=O)N1CC2(CCN(C(=O)c3ccc(Cl)c(Oc4cc(F)cc(CCC(F)(F)F)c4)c3Cl)CC2)C1` [Example 327], the concentration giving a half-maximal response (EC50) was 90 nM.

In the case of `CC(C)c1cc(F)cc(Oc2c(Cl)cc(NC(=O)Cc3cccc(S(C)(=O)=O)c3)cc2Cl)c1` [Example 328], the EC50 was 19 nM.

For the molecule `CC(C)c1cc(F)cc(Oc2c(Cl)cc(NC(=O)Cc3ccc(S(C)(=O)=O)cc3)cc2Cl)c1` [Example 329], the EC50 came to 32 nM.

On to `CC(C)c1cc(F)cc(Oc2c(Cl)cc(NC(=O)CC3CC(=O)NC(=O)C3)cc2Cl)c1` [Example 330], for which the EC50 was 237 nM.

Turning to `CC(C)c1cc(F)cc(Oc2c(Cl)cc(NC(=O)CN3CCC(S(C)(=O)=O)CC3)cc2Cl)c1` [Example 331], the EC50 worked out at 116 nM.

As for `CC(C)c1cc(F)cc(Oc2c(Cl)cc(NC(=O)CN3CCN(S(C)(=O)=O)CC3)cc2Cl)c1` [Example 332], the EC50 came out at 7.6 nM.

Take `CC(C)(F)c1cc(F)cc(Oc2c(Cl)cc(NC(=O)CC3CCN(S(C)(=O)=O)CC3)cc2Cl)c1` [Example 333]: the EC50 turned out to be 8.1 nM.

For `CC(C)(F)c1cc(F)cc(Oc2c(Cl)cc(NC(=O)CN3CCN(S(C)(=O)=O)CC3)cc2Cl)c1` [Example 334], the EC50 was determined as 6.6 nM.

Regarding `COc1ccc(Oc2c(Cl)cc(NC(=O)Cc3cccnc3)cc2Cl)cc1C(C)(C)O` [Example 335], the EC50 amounted to 722 nM.

For `COc1ccc(Oc2c(Cl)cc(NC(=O)Cc3ccc(S(C)(=O)=O)cc3)cc2Cl)cc1C(C)(C)F` [Example 336], the EC50 turned out to be 14 nM.

`CC(C)(F)c1cc(F)cc(Oc2c(Cl)ccc(C(=O)NCc3ccc(S(N)(=O)=O)cc3)c2Cl)c1` [Example 337]: the EC50 came to 15 nM.

As for `CC(C)(F)c1cc(F)cc(Oc2c(Cl)ccc(C(=O)NCc3ccc(S(C)(=O)=O)cc3)c2Cl)c1` [Example 338], the EC50 came out at 1.8 nM.

Consider `COc1ccc(Oc2c(Cl)cc(NC(=O)[C@H]3CC[C@@H](C(=O)OC)CC3)cc2Cl)cc1C(C)C` [Example 339], for which the EC50 is 983 nM.

As to `COc1ccc(Oc2c(Cl)cc(NC(=O)CCC(=O)O)cc2Cl)cc1C(C)C` [Example 340], the EC50 was 5530 nM.

For `COc1ccc(Oc2c(Cl)ccc(C(=O)N3CCC4(CC3)CN(C=O)C4)c2Cl)cc1C(C)C` [Example 341], the EC50 worked out at 75 nM.

In the case of `COc1ccc(Oc2c(Cl)cc(NC(=O)Cc3cncnc3)cc2Cl)cc1C(C)C` [Example 342], the EC50 stood at 136 nM.

Regarding `COc1ccc(Oc2c(Cl)cc(NC(=O)Cc3ccc(Cl)nc3)cc2Cl)cc1C(C)C` [Example 343], the concentration giving a half-maximal response (EC50) turned out to be 67 nM.

On to `COc1ccc(Oc2c(Cl)cc(NC(=O)Cc3ccc(C)nc3)cc2Cl)cc1C(C)C` [Example 344], for which the EC50 stood at 75 nM.

In the case of `COc1ccc(Oc2c(Cl)cc(NC(=O)Cc3cccnc3Cl)cc2Cl)cc1C(C)C` [Example 345], the EC50 is 124 nM.
